Test [1] has as its target T1, TYK2 JH2 (Homo sapiens, UniProt P29597).
T1 construct: purchased DiscoverX (KINOMEscan KdELECT service); host or cells: E. coli BL21-derived (T7 phage display) or HEK-293
In words: TYK2 JH2 binding assay (KINOMEscan KdELECT competitive binding). Conditions: TYK2 JH2 domain, DiscoverX KINOMEscan KdELECT (Assay A); read-out: Biochemical TYK2_DiscoverX_JH2_BND_Kd. A digest of the protocol: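 Test compounds were titrated in 11 three-fold steps against JH2 fragment captured on ligand-loaded magnetic beads, with 1 h incubation at room temperature and DMSO at 0.9%. Eluted kinase was quantified by qPCR, and Kd was fitted from the dose series.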

Test [2] has as its system JAK1/TYK2 pSTAT5 (Tyr694/699) in THP-1 cell line. In words: IFNa-stimulated JAK1/TYK2 pSTAT5 (Tyr694/699) inhibition cellular assay, AlphaLISA. Type of test: cell-based. Conditions: Homo sapiens; THP-1 cells, IFNa-stimulated, AlphaLISA (Assay B); read-out: Cellular_THP1_IFNa-pSTATS_TYK2. A digest of the protocol: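 pSTAT5 (Tyr694/699) in lysates quantified by AlphaLISA (615 nm) after 30 min IFNa stimulation (100 ng/mL stock) of THP-1 cells. The cells, 2e4 per well in HBSS, had first been exposed 1 h at 37° C. to eight 6-fold compound dilutions, 10000 down to 0.04 nM final. IC50 fitted by 4PL regression, bottom 0, Hill slope −1.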

Results on 26 compounds are retold here after US20240025906A1 (NEURON23, INC., priority 2022, published 2024).

T1 sequence (P29597 589-875 limits assumed): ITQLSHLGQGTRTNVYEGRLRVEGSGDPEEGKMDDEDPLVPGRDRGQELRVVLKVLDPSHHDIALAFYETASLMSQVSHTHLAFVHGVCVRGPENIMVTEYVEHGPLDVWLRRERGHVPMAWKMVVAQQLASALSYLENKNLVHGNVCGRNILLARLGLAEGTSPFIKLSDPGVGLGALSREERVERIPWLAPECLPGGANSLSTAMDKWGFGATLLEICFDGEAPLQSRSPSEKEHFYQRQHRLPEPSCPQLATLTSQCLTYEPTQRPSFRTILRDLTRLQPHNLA

For `CNc1ncc(-c2nc3cc(OC)ccc3o2)c2cc(NC(=O)[C@@H]3C[C@@H]3F)ncc12` [Example 388, (1S,2S)-2-fluoro-N-(5-(5-methoxybenzo[d]oxazol-2-y1)-8-(methylamino)-2,7-naphthyridin-3-yl)cyclopropane-1-carboxamide], the Kd in test [1] was ≤ 100 nM. In addition, in test [2], the IC50 was ≤ 500 nM.

Regarding `CNc1ncc(-c2nc3cc(OC)ccc3o2)c2cc(NC(=O)[C@H]3C[C@@H]3F)ncc12` [Example 389, (1R,2S)-2-fluoro-N-(5-(5-methoxybenzo[d]oxazol-2-yl)-8-(methylamino)-2,7-naphthyridin-3-yl)cyclopropane-1-carboxamide], the Kd in test [1] was ≤ 100 nM. In test [2], the IC50 was ≤ 500 nM.

For the compound `CNc1ncc(-c2nc3cc(OC)ccc3o2)c2cc(NC(=O)[C@@H]3C[C@H]3F)ncc12` [Example 390, (1S,2R)-2-fluoro-N-(5-(5-methoxybenzo[d]oxazol-2-yl)-8-(methylamino)-2,7-naphthyridin-3-yl)cyclopropane-1-carboxamide], the Kd in test [1] was ≤ 100 nM. The IC50 in test [2] was ≤ 500 nM.

In the case of `CNc1ncc(-c2nc3cc(OC)ccc3o2)c2cc(NC(=O)CC(C)(O)CO)ncc12` (stereo not shown) [Example 402, 3,4-dihydroxy-N-(5-(5-methoxybenzo[d]oxazol-2-yl)-8-(methylamino)-2,7-naphthyridin-3-yl)-3-methylbutanamide], in test [1], the Kd is ≤ 100 nM. The IC50 in test [2] was > 500 nM.

Take `CNc1ncc(-c2nc3cc(OC)ccc3o2)c2cc(NC3CCC(=O)O3)ncc12` (stereo not shown) [Example 403, 5-((5-(5-methoxybenzo[d]oxazol-2-yl)-8-(methylamino)-2,7-naphthyridin-3-yl)amino)dihydrofuran-2(3H)-one]: in test [1], the Kd was ≤ 100 nM. Further, in test [2], the IC50 was > 500 nM.

Consider `CNc1ncc(-c2nc3cc(OC)ccc3o2)c2cc(NC(=O)C3(O)CC3)ncc12` [Example 404, 1-hydroxy-N-(5-(5-methoxybenzo[d]oxazol-2-yl)-8-(methylamino)-2,7-naphthyridin-3-yl)cyclopropane-1-carboxamide], for which the Kd in test [1] is ≤ 100 nM. Besides, the IC50 in test [2] is ≤ 500 nM.

`CNc1ncc(-c2nc3cc(N4CCO[C@@H](C)C4)ccc3o2)c2cc(NC(=O)[C@@H]3C[C@@H]3F)ncc12` [Example 407, (1S,2S)-2-fluoro-N-(8-(methylamino)-5-(5-((S)-2-methylmorpholino)benzo[d]oxazol-2-yl)-2,7-naphthyridin-3-yl)cyclopropane-1-carboxamide]: in test [1], the Kd is ≤ 100 nM. Also, in test [2], the IC50 was ≤ 500 nM.

On to `CNc1ncc(-c2nc3cc(N4CCO[C@@H](C)C4)ccc3o2)c2cc(NC(=O)[C@H]3C[C@H]3C)ncc12` [Example 408, (1S,2R)-2-methyl-N-(8-(methylamino)-5-(5-((S)-2-methylmorpholino)benzo[d]oxazol-2-yl)-2,7-naphthyridin-3-yl)cyclopropane-1-carboxamide], for which the Kd in test [1] is ≤ 100 nM. The IC50 in test [2] was ≤ 500 nM.

Regarding `CNc1ncc(-c2nc3cc(N4CCO[C@@H](C)C4)ccc3o2)c2cc(NC(=O)C3(C)CC3)ncc12` [Example 409, (S)-1-methyl-N-(8-(methylamino)-5-(5-(2-methylmorpholino)benzo[d]oxazol-2-yl)-2,7-naphthyridin-3-yl)cyclopropane-4-carboxamide], the Kd in test [1] is ≤ 100 nM. In addition, the IC50 in test [2] is ≤ 500 nM.

`CNc1ncc(-c2nc3cc(N4CCO[C@@H](C)C4)ccc3o2)c2cc(Nc3ccn(C)n3)ncc12` [Example 417, (S)—N^1-methyl-N^6-(1-methyl-1H-pyrazol-3-yl)-4-(5-(2-methylmorpholino)benzo[d]oxazol-2-yl)-2,7-naphthyridine-1,6-diamine]: the Kd in test [1] is ≤ 100 nM. Further, in test [2], the IC50 was ≤ 500 nM.

Turning to `CNc1ncc(-c2nc3cc(N4CCO[C@H](C)C4)ccc3o2)c2cc(NC(=O)[C@@H]3C[C@@H]3F)ncc12` [Example 418, (1S,2S)-2-fluoro-N-(8-(methylamino)-5-(5-((R)-2-methylmorpholino)benzo[d]oxazol-2-yl)-2,7-naphthyridin-3-yl)cyclopropane-1-carboxamide], in test [1], the Kd is ≤ 100 nM. In addition, the IC50 in test [2] was ≤ 500 nM.

Take `CNc1ncc(-c2nc3cc(N4CCO[C@H](C)C4)ccc3o2)c2cc(NC(=O)[C@H]3C[C@H]3C)ncc12` [Example 419, (1S,2R)-2-methyl-N-(8-(methylamino)-5-(5-((R)-2-methylmorpholino)benzo[d]oxazol-2-yl)-2,7-naphthyridin-3-yl)cyclopropane-1-carboxamide]: the Kd in test [1] was ≤ 100 nM. The IC50 in test [2] was ≤ 500 nM.

Turning to `CNc1ncc(-c2nc3cc(N4CCO[C@H](C)C4)ccc3o2)c2cc(Nc3ccccn3)ncc12` [Example 420, (R)—N^1-methyl-4-(5-(2-methylmorpholino)benzo[d]oxazol-2-yl)-N^6-(pyridin-2-yl)-2,7-naphthyridine-1,6-diamine], the Kd in test [1] is ≤ 100 nM. For the same compound, the IC50 in test [2] was ≤ 500 nM.

With `CNc1ncc(-c2nc3cc(N4CCOCC4)ccc3o2)c2cc(NC(=O)[C@@H]3CC3(F)F)ncc12` [Example 421, (S)-2,2-difluoro-N-(8-(methylamino)-5-(5-morpholinobenzo[d]oxazol-2-yl)-2,7-naphthyridin-3-yl)cyclopropane-1-carboxamide], the Kd in test [1] is ≤ 100 nM. Besides, the IC50 in test [2] is ≤ 500 nM.

On to `CNc1ncc(-c2nc3cc(N4CCOCC4)ccc3o2)c2cc(NC(=O)[C@H]3CC3(F)F)ncc12` [Example 422, (R)-2,2-difluoro-N-(8-(methylamino)-5-(5-morpholinobenzo[d]oxazol-2-y1)-2,7-naphthyridin-3-yl)cyclopropane-1-carboxamide], for which the Kd in test [1] was ≤ 100 nM. Also, the IC50 in test [2] was ≤ 500 nM.

Consider `CNc1ncc(-c2nc3cc(N4CCOCC4)ccc3o2)c2cc(NC(=O)[C@H]3C[C@H]3C)ncc12` [Example 423, (1S,2R)-2-methyl-N-(8-(methylamino)-5-(5-morpholinobenzo[d]oxazol-2-yl)-2,7-naphthyridin-3-yl)cyclopropane-1-carboxamide], for which the Kd in test [1] is ≤ 100 nM. Besides, the IC50 in test [2] was ≤ 500 nM.

Regarding `CNc1ncc(-c2nc3cc(N4CCOCC4)ccc3o2)c2cc(NC(=O)[C@@H]3C[C@@H]3F)ncc12` [Example 424, (1S,2S)-2-fluoro-N-(8-(methylamino)-5-(5-morpholinobenzo[d]oxazol-2-yl)-2,7-naphthyridin-3-yl)cyclopropane-1-carboxamide], the Kd in test [1] was ≤ 100 nM. In addition, in test [2], the IC50 is ≤ 500 nM.

For the compound `CNc1ncc(-c2nc3cc(N4CCOCC4)ccc3o2)c2cc(NC(=O)C3(F)CC3)ncc12` [Example 425, 1-fluoro-N-(8-(methylamino)-5-(5-morpholinobenzo[d]oxazol-2-yl)-2,7-naphthyridin-3-yl)cyclopropane-1-carboxamide], the Kd in test [1] was ≤ 100 nM. Moreover, in test [2], the IC50 was ≤ 500 nM.

Consider `CNc1ncc(-c2nc3cc(N4CCOCC4)ccc3o2)c2cc(Nc3cc(C)n(C)n3)ncc12` [Example 426, N6-(1,5-dimethyl-1H-pyrazol-3-yl)-N^1-methyl-4-(5-morpholinobenzo[d]oxazol-2-yl)-2,7-naphthyridine-1,6-diamine], for which the Kd in test [1] was ≤ 100 nM. Also, in test [2], the IC50 is ≤ 500 nM.

On to `CNc1ncc(-c2nc3ccccc3o2)c2cc(Nc3ccccn3)ncc12` [Example 427, 4-(benzo[d]oxazol-2-yl)-N^1-methyl-N^6-(pyridin-2-yl)-2,7-naphthyridine-1,6-diamine], for which, in test [1], the Kd was ≤ 100 nM. Further, the IC50 in test [2] was ≤ 500 nM.

With `CCC(=O)Nc1cc2c(-c3nc4ccccc4o3)cnc(NC)c2cn1` [Example 428, N-(5-(benzo[d]oxazol-2-yl)-8-(methylamino)-2,7-naphthyridin-3-yl)propionamide], the Kd in test [1] is ≤ 100 nM. For the same compound, the IC50 in test [2] was ≤ 500 nM.

Regarding `CNc1ncc(-c2nc3ccccc3o2)c2cc(NC(=O)C(C)C)ncc12` [Example 429, N-(5-(benzo[d]oxazol-2-yl)-8-(methylamino)-2,7-naphthyridin-3-yl)isobutyramide], in test [1], the Kd is ≤ 100 nM. Further, the IC50 in test [2] was > 500 nM.

For `[2H]C([2H])([2H])Nc1ncc(-c2nc3ccccc3o2)c2cc(NC(C)=O)ncc12` [Example 431, N-(5-(benzo[d]oxazol-2-yl)-8-((methyl-d3)amino)-2,7-naphthyridin-3-yl)acetamide], the Kd in test [1] was ≤ 100 nM. The IC50 in test [2] was ≤ 500 nM.

`[2H]C([2H])([2H])Nc1ncc(-c2nc3ccccc3o2)c2cc(NC(=O)C([2H])([2H])[2H])ncc12` [Example 432, N-(5-(benzo[d]oxazol-2-yl)-8-((methyl-d3)amino)-2,7-naphthyridin-3-yl)acetamide-2,2,2-d3]: in test [1], the Kd was ≤ 100 nM. Further, the IC50 in test [2] was ≤ 500 nM.

Turning to `[2H]C([2H])([2H])Nc1ncc(-c2nc3cc(OC)ccc3o2)c2cc(NC(=O)[C@@H]3C[C@@H]3F)ncc12` [Example 435, (1S,2S)-2-fluoro-N-(5-(5-methoxybenzo[d]oxazol-2-yl)-8-((methyl-d3)amino)-2,7-naphthyridin-3-yl)cyclopropane-1-carboxamide], in test [1], the Kd is ≤ 100 nM. Also, the IC50 in test [2] is ≤ 500 nM.

Regarding `[2H]C([2H])([2H])Nc1ncc(-c2nc3cc(OC([2H])([2H])[2H])ccc3o2)c2cc(NC(=O)[C@H]3C[C@H]3C)ncc12` [Example 439, (1S,2R)—N-(5-(5-(methoxy-d3)benzo[d]oxazol-2-yl)-8-((methyl-d3)amino)-2,7-naphthyridin-3-yl)-2-methylcyclopropane-1-carboxamide], the Kd in test [1] was ≤ 100 nM. The IC50 in test [2] is ≤ 500 nM.
